According to PubChem BioAssay (NCI):
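Exposure lasted 48 hours, with cells grown in 96-well plates and compounds tested at five concentrations. At the GI50, growth is halved. At the TGI there is no net growth.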

What was measured:
Experiment in all cases: DTP human tumour cell line panel, 48 h
HCT-15 colon = system: HCT-15 colon
SK-OV-3 ovarian = system: SK-OV-3 ovarian
HT29 colon = system: HT29 colon
CCRF-CEM leukemia = system: CCRF-CEM leukemia
A549 NSCLC = system: A549 NSCLC
786-0 renal = system: 786-0 renal
MDA-MB-231 breast = system: MDA-MB-231 breast
IGROV1 ovarian = system: IGROV1 ovarian
CAKI-1 renal = system: CAKI-1 renal
OVCAR-5 ovarian = system: OVCAR-5 ovarian
HCT-116 colon = system: HCT-116 colon
KM12 colon = system: KM12 colon
HL-60(TB) leukemia = system: HL-60(TB) leukemia
SN12C renal = system: SN12C renal
HOP-92 NSCLC = system: HOP-92 NSCLC
HS 578T breast = system: HS 578T breast
U251 CNS = system: U251 CNS
ACHN renal = system: ACHN renal
SW-620 colon = system: SW-620 colon
HOP-62 NSCLC = system: HOP-62 NSCLC
M14 melanoma = system: M14 melanoma
NCI-H460 lung = system: NCI-H460 lung
A498 renal = system: A498 renal
NCI-H522 lung = system: NCI-H522 lung
MDA-MB-435 = system: MDA-MB-435
OVCAR-3 ovarian = system: OVCAR-3 ovarian
MCF7 breast = system: MCF7 breast
DU-145 prostate = system: DU-145 prostate
UO-31 renal = system: UO-31 renal
EKVX NSCLC = system: EKVX NSCLC
SF-268 CNS = system: SF-268 CNS
MALME-3M melanoma = system: MALME-3M melanoma
OVCAR-4 ovarian = system: OVCAR-4 ovarian
PC-3 prostate = system: PC-3 prostate
RPMI-8226 leukemia = system: RPMI-8226 leukemia
K-562 leukemia = system: K-562 leukemia
LOX IMVI melanoma = system: LOX IMVI melanoma
BT-549 breast = system: BT-549 breast
HCC-2998 colon = system: HCC-2998 colon
SF-539 CNS = system: SF-539 CNS
OVCAR-8 ovarian = system: OVCAR-8 ovarian
SNB-75 CNS = system: SNB-75 CNS
NCI-H226 lung = system: NCI-H226 lung
SNB-19 CNS = system: SNB-19 CNS
NCI-H23 lung = system: NCI-H23 lung
SK-MEL-28 melanoma = system: SK-MEL-28 melanoma
SK-MEL-2 melanoma = system: SK-MEL-2 melanoma
UACC-257 melanoma = system: UACC-257 melanoma
TK-10 renal = system: TK-10 renal
MOLT-4 leukemia = system: MOLT-4 leukemia
UACC-62 melanoma = system: UACC-62 melanoma
SK-MEL-5 melanoma = system: SK-MEL-5 melanoma
NCI/ADR-RES ovarian = system: NCI/ADR-RES ovarian
RXF 393 renal = system: RXF 393 renal

N#C/C(=C\c1ccc2c(c1)OCO2)n1nnc2ccccc21
GI50 (HCT-15 colon): 0.395 µM
TGI (HCT-15 colon): 13.8 µM
GI50 (SK-OV-3 ovarian): 2.61 µM
TGI (SK-OV-3 ovarian): 17 µM
GI50 (HT29 colon): 0.383 µM
TGI (HT29 colon): > 100 µM
GI50 (CCRF-CEM leukemia): 0.491 µM
TGI (CCRF-CEM leukemia): > 100 µM
GI50 (A549 NSCLC): 0.991 µM
TGI (A549 NSCLC): 48.1 µM
GI50 (786-0 renal): 2.01 µM
TGI (786-0 renal): 12.9 µM
GI50 (MDA-MB-231 breast): 1.7 µM
TGI (MDA-MB-231 breast): 7.73 µM
GI50 (IGROV1 ovarian): 0.716 µM
TGI (IGROV1 ovarian): 11.8 µM
GI50 (CAKI-1 renal): 0.518 µM
TGI (CAKI-1 renal): 13.1 µM
GI50 (OVCAR-5 ovarian): 2.22 µM
TGI (OVCAR-5 ovarian): 7.13 µM
GI50 (HCT-116 colon): 0.439 µM
TGI (HCT-116 colon): 17.4 µM
GI50 (KM12 colon): 0.797 µM
TGI (KM12 colon): > 100 µM
GI50 (HL-60(TB) leukemia): 0.33 µM
TGI (HL-60(TB) leukemia): > 100 µM
GI50 (SN12C renal): 1.32 µM
TGI (SN12C renal): 14.8 µM
GI50 (HOP-92 NSCLC): 0.81 µM
TGI (HOP-92 NSCLC): 3.31 µM
GI50 (HS 578T breast): 2.53 µM
TGI (HS 578T breast): 9.36 µM
GI50 (U251 CNS): 1.54 µM
TGI (U251 CNS): 21.1 µM
GI50 (ACHN renal): 0.784 µM
TGI (ACHN renal): 8.53 µM
GI50 (SW-620 colon): 0.489 µM
TGI (SW-620 colon): > 100 µM
GI50 (HOP-62 NSCLC): 2.41 µM
TGI (HOP-62 NSCLC): 14.9 µM
GI50 (M14 melanoma): 0.424 µM
TGI (M14 melanoma): 23.5 µM
GI50 (NCI-H460 lung): 2.86 µM
TGI (NCI-H460 lung): > 100 µM
GI50 (A498 renal): 1.76 µM
TGI (A498 renal): 5.28 µM
GI50 (NCI-H522 lung): 0.27 µM
TGI (NCI-H522 lung): 15.2 µM
GI50 (MDA-MB-435): 0.2 µM
TGI (MDA-MB-435): 0.501 µM
GI50 (OVCAR-3 ovarian): 0.357 µM
TGI (OVCAR-3 ovarian): 14.3 µM
GI50 (MCF7 breast): 0.417 µM
TGI (MCF7 breast): 14.1 µM
GI50 (DU-145 prostate): 1.9 µM
TGI (DU-145 prostate): 13.1 µM
GI50 (UO-31 renal): 1.76 µM
TGI (UO-31 renal): 12.7 µM
GI50 (EKVX NSCLC): 1.54 µM
TGI (EKVX NSCLC): 16.3 µM
GI50 (SF-268 CNS): 3.22 µM
TGI (SF-268 CNS): 20.5 µM
GI50 (MALME-3M melanoma): 1.4 µM
TGI (MALME-3M melanoma): 23.4 µM
GI50 (OVCAR-4 ovarian): 1.66 µM
TGI (OVCAR-4 ovarian): 20.3 µM
GI50 (PC-3 prostate): 1.35 µM
TGI (PC-3 prostate): 24.3 µM
GI50 (RPMI-8226 leukemia): 2.19 µM
TGI (RPMI-8226 leukemia): > 100 µM
GI50 (K-562 leukemia): 0.361 µM
TGI (K-562 leukemia): > 100 µM
GI50 (LOX IMVI melanoma): 0.99 µM
TGI (LOX IMVI melanoma): 25 µM
GI50 (BT-549 breast): 0.938 µM
TGI (BT-549 breast): 15 µM
GI50 (HCC-2998 colon): 1.86 µM
TGI (HCC-2998 colon): 7.23 µM
GI50 (SF-539 CNS): 1.48 µM
TGI (SF-539 CNS): 6.27 µM
GI50 (OVCAR-8 ovarian): 1.76 µM
TGI (OVCAR-8 ovarian): > 100 µM
GI50 (SNB-75 CNS): 0.179 µM
TGI (SNB-75 CNS): 1.51 µM
GI50 (NCI-H226 lung): 2.21 µM
TGI (NCI-H226 lung): 16 µM
GI50 (SNB-19 CNS): 1.42 µM
TGI (SNB-19 CNS): 13.3 µM
GI50 (NCI-H23 lung): 3.6 µM
TGI (NCI-H23 lung): 22.6 µM
GI50 (SK-MEL-28 melanoma): 1.24 µM
TGI (SK-MEL-28 melanoma): 17.6 µM
GI50 (SK-MEL-2 melanoma): 1.23 µM
TGI (SK-MEL-2 melanoma): 26.9 µM
GI50 (UACC-257 melanoma): 6.68 µM
TGI (UACC-257 melanoma): 62.4 µM
GI50 (TK-10 renal): 2.2 µM
TGI (TK-10 renal): 8.55 µM
GI50 (MOLT-4 leukemia): 2.42 µM
TGI (MOLT-4 leukemia): > 100 µM
GI50 (UACC-62 melanoma): 0.45 µM
TGI (UACC-62 melanoma): 18.5 µM
GI50 (SK-MEL-5 melanoma): 1.62 µM
TGI (SK-MEL-5 melanoma): 12.6 µM
GI50 (NCI/ADR-RES ovarian): 0.405 µM
TGI (NCI/ADR-RES ovarian): 17.2 µM
GI50 (RXF 393 renal): 0.986 µM
TGI (RXF 393 renal): 5.31 µM
